Measurements: patent publication US5644059A, “1,4-dihydropyridine derivatives and methods of producing the same” (Fujirebio Inc., priority 1990, dated 1997)

Tested on: platelet aggregation
Experiment: Test for platelet aggregation-inhibiting activity of rabbit (PAF-induced aggregation in platelet rich plasma)
Assay type: cell-based
Design: dose or concentration left out as unconfirmed
Details: rabbit PRP, 37°C, 10 minutes incubation, aggregation by PAF (10 μl); test compound concentration not given
Method: 2. Test for platelet aggregation-inhibiting activity of rabit
A blood of a rabbit (Japanese white; male; 2.5-3.0 kg) was exsanguinated from a carotid of the rabbit, and nine parts of the blood were mixed with one part of a 3.8% aqueous solution of sodium citrate. The mixture was centrifuged at 1100 rpm at 20°C. for 15 minutes. The upper layer is a platelet rich plasma (PRP), and the lower layer was centrifuged at 2500 rpm at 20° C. for 10 minutes, so that a platelet poor plasma (PPP) was obtained.
10 μl of a solution of the compound to be tested was added to 200 μl of PRP, and the mixture was subjected to incubation at 37°C. for 10 minutes. To the mixture was added 10 μl of a platelet activating factor (PAF)(10 mg/ml). The agglutination was measured by Agricometer (NKK, PAT-4A).

Question: With `CCOC(=O)C1(NC(=O)C2=C(C)NC(C)=C(C(=O)OC)C2c2cccc([N+](=O)[O-])c2)CCCCC1` (stereo not shown) [Example 67, ethyl 1-[N-[1,4-dihydro-2,6-dimethyl-5-methoxycarbonyl-4-(3-nitrophenyl)pyridine-3-carbonyl]amino]cyclohexanecarboxylate] as the compound, how does the “Platelet Aggregation-Inhibiting Activity” value read?
Answer: 33.8%

Question: `CCOC(=O)C(C)(C)NC(=O)C1=C(C)NC(C)=C(C(=O)OC)C1c1cccc([N+](=O)[O-])c1` (stereo not shown) [Example 68, ethyl 2-[N-[1,4-dihydro-2,6-dimethyl-5-methoxycarbonyl-4-(3-nitrophenyl)pyridine-3-carbonyl]amino]isobutyrate] was tested. Which “Platelet Aggregation-Inhibiting Activity” value did it give?
Answer: 34.1%

Question: With `CCOC(=O)c1ccccc1NC(=O)C1=C(C)NC(C)=C(C(=O)OC)C1c1cccc([N+](=O)[O-])c1` (stereo not shown) [Example 69, ethyl 2-[N-[1,4-dihydro-2,6-dimethy1-5-methoxycarbonyl-4-(3-nitrophenyl)pyridine-3-carbonyl]amino]-benzoate] as the compound, how does the “Platelet Aggregation-Inhibiting Activity” value read?
Answer: 23.3%

Question: `CCOC(=O)c1nccnc1NC(=O)C1=C(C)NC(C)=C(C(=O)OC)C1c1cccc([N+](=O)[O-])c1` (stereo not shown) [Example 70, ethyl 3-[N-[1,4-dihydro-2,6-dimethyl-5-methoxycarbonyl-4-(3-nitrophenyl)pyridine-3-carbonyl]amino]pyrazine-2-carboxylate] was tested. Which “Platelet Aggregation-Inhibiting Activity” value did it give?
Answer: 27.1%

Question: Which “Platelet Aggregation-Inhibiting Activity” value does the source give for `COC(=O)C1=C(C)NC(c2ccccc2)=C(C(=O)N[C@H](C(=O)OC(C)(C)C)C(C)C)C1c1cccc([N+](=O)[O-])c1` (stereo partly shown) [Example 71, t-butyl 2-[N-[1,4-dihydro-6-methyl-5-methoxycarbonyl-4-(3-nitrophenyl)-2-phenylpyridine-3-carbonyl]amino]-3-methylbutylate] here?
Answer: 100%

Question: How did the “Platelet Aggregation-Inhibiting Activity” value turn out when `CCOC(=O)C1=C(c2ccccc2)NC(C)=C(C(=O)NCC(=O)OC(C)(C)C)C1c1cccc([N+](=O)[O-])c1` (stereo not shown) [Example 76] was run?
Answer: 46.3%

Question: For `COC(=O)C1=C(C)NC(C)=C(C(=O)NCC(=O)OC(C)(C)C)[C@@H]1c1cccc([N+](=O)[O-])c1` [Example 79, (+)-t-butyl (S)-[2-[N-[1,4-dihydro-2,6-dimethyl-5-methoxycarbonyl-4-(3-nitrophenyl)pyridin-3-yl]-carbonyl]amino]acetate], which “Platelet Aggregation-Inhibiting Activity” value is on record?
Answer: 100%
